# Results taken from PubChem BioAssay (NCI).
#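 The compound was tested at five concentrations on cells cultured in 96-well plates, with a 48-hour exposure period. GI50 is the concentration that inhibits growth by half. TGI: total growth inhibition.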
# Columns and labels:
# Assay in all cases: growth of human tumour cells (NCI), 48 h
# HCT-116 colon = tested on: HCT-116 colon
# DU-145 prostate = tested on: DU-145 prostate
# T-47D breast = tested on: T-47D breast
# CCRF-CEM leukemia = tested on: CCRF-CEM leukemia
# NCI-H460 lung = tested on: NCI-H460 lung
# SW-620 colon = tested on: SW-620 colon
# MOLT-4 leukemia = tested on: MOLT-4 leukemia
# NCI/ADR-RES ovarian = tested on: NCI/ADR-RES ovarian
# HOP-92 NSCLC = tested on: HOP-92 NSCLC
# MDA-MB-435 = tested on: MDA-MB-435
# HOP-62 NSCLC = tested on: HOP-62 NSCLC
# SNB-75 CNS = tested on: SNB-75 CNS
# MDA-MB-231 breast = tested on: MDA-MB-231 breast
# UO-31 renal = tested on: UO-31 renal
# U251 CNS = tested on: U251 CNS
# MDA-N = tested on: MDA-N
# SK-MEL-28 melanoma = tested on: SK-MEL-28 melanoma
# SNB-19 CNS = tested on: SNB-19 CNS
SMILES,TGI (HCT-116 colon) [µM],TGI (DU-145 prostate) [µM],TGI (T-47D breast) [µM],TGI (CCRF-CEM leukemia) [µM],TGI (NCI-H460 lung) [µM],TGI (SW-620 colon) [µM],TGI (MOLT-4 leukemia) [µM],TGI (NCI/ADR-RES ovarian) [µM],TGI (HOP-92 NSCLC) [µM],TGI (MDA-MB-435) [µM],TGI (HOP-62 NSCLC) [µM],TGI (SNB-75 CNS) [µM],TGI (MDA-MB-231 breast) [µM],TGI (UO-31 renal) [µM],TGI (U251 CNS) [µM],TGI (MDA-N) [µM],TGI (SK-MEL-28 melanoma) [µM],TGI (SNB-19 CNS) [µM],GI50 (HCT-116 colon) [µM]
C=CC(C)CCC(C/C=C(\C)CCC=C(C)C)C(=C)CCCC(C)C (configuration not stated),> 100,> 100,> 100,> 100,> 100,> 100,> 100,> 100,> 100,> 100,> 100,> 100,> 100,> 100,> 100,> 100,> 100,> 100,–
C=CCNC1=C2C[C@@H](C)C[C@@H](OC)[C@H](OC(=O)CN)[C@H](C)/C=C(\C)[C@@H](OC(N)=O)[C@H](OC)/C=C\C=C(/C)C(=O)NC(=CC1=O)C2=O,14.4,> 40.9,> 25.5,> 29.8,18.3,> 100,> 36.1,> 100,8.71,14.3,19.9,9.59,15.6,19.7,29.1,13,29.7,25.5,–
Cc1c2c(n(CCN(C)C)c1C)NN=C(C#N)S2(=O)=O,> 100,> 100,> 100,–,> 100,> 100,> 100,> 100,–,> 100,> 100,> 100,> 100,> 100,> 100,> 100,> 100,> 100,–
CCOC(=O)c1cnc(-n2[nH]c3c(c2=O)CCCC3)[nH]c1=O,> 100,> 100,> 100,> 100,> 100,> 100,> 100,> 100,57.6,> 100,–,–,> 100,> 100,> 100,> 100,> 100,> 100,–
OC1CN2Cc3cc4c(cc3[C@]13C=C[C@@H](O)CC23)OCO4 (some centres not stated),> 100,71.9,31.2,48.5,45.6,> 100,> 100,> 100,86.8,> 100,> 100,–,> 100,> 100,> 100,> 100,> 100,> 100,–
Cc1c(C)c(S(=O)(=O)N(CCCN)OCCCN)c(C)c2c1OC(C)(C)C2,> 100,> 100,> 100,90,> 100,59.8,42.7,> 100,–,> 100,> 100,59.5,33.3,> 100,38.3,33.6,> 100,63.5,–
CCc1c(Cc2cc(C)cc(C)c2)n2c(nc1=O)SCC2CBr (configuration not stated),> 50,> 50,> 50,> 50,> 50,> 50,> 50,> 50,> 50,> 50,–,> 50,> 50,> 50,> 50,> 50,> 50,> 50,–
O=C(/C=C/c1ccc(O)c(O)c1O)OCCc1ccccc1,26.3,> 100,> 100,–,42.7,49.2,53.8,70.7,> 100,36.2,55.5,–,47.3,78.1,80.6,34,> 100,> 100,–
CCOC(=O)/C=C1\c2ccccc2C(=O)N1CC(=O)OCC,> 100,> 100,> 100,> 100,–,> 100,> 100,> 100,> 100,> 100,> 100,> 100,> 100,> 100,> 100,> 100,> 100,> 100,–
CC(C)NCCC(O)c1cc2ccccc2o1 (configuration not stated),> 100,> 100,> 100,–,> 100,> 100,49.2,> 100,> 100,> 100,> 100,> 100,> 100,> 100,> 100,> 100,> 100,> 100,–
COc1ccc(/C=C2\N=C(NN)N=C2Cl)cc1,> 100,> 100,> 100,> 100,–,> 100,> 100,> 100,> 100,> 100,> 100,> 100,> 100,> 100,> 100,> 100,> 100,> 100,–
O=C(O)CCCOc1cc(-c2ccccc2F)nc2cc3c(cc12)OCO3,> 100,> 100,> 100,9.86,–,> 100,71.3,> 100,95.6,> 100,> 100,> 100,> 100,–,> 100,4.45,> 100,–,3.99
CC#CCCN(CC#N)Cc1ccccc1,> 100,> 100,> 100,> 100,> 100,–,> 100,> 100,> 100,> 100,> 100,> 100,> 100,> 100,> 100,> 100,> 100,> 100,–
C/C=C/C(=O)N1C(=O)OC[C@@H]1c1ccccc1,38.1,37.4,36.8,44.8,–,54.6,47.3,44.4,37.2,70,41.1,27.1,39.8,35.2,48.5,43.8,45.5,41.4,–
Cc1ccc(/C=C/C(=O)c2cc(CN(C)C)c(O)c(CN(C)C)c2)cc1,39.7,> 100,> 100,> 100,26.1,38.2,57.2,79.1,70.8,57,37.5,88.9,27.2,60,58,42.5,33.6,–,–
O=C(CCN1CCOCC1)Nc1ccc2sc3ccccc3c(=O)c2n1,> 100,> 100,> 100,> 100,> 100,> 100,–,> 100,> 100,> 100,> 100,85.1,> 100,> 100,> 100,> 100,> 100,> 100,–
NC(=Nc1ccc(O)cc1)S(=O)O,> 100,> 100,> 100,> 100,–,> 100,> 100,> 100,> 100,> 100,> 100,> 100,> 100,> 100,> 100,> 100,> 100,> 100,–
Nc1nc(Cl)c2nnn(CC3CCC(CO)C3)c2n1 (configuration not stated),> 100,> 100,> 100,> 100,–,> 100,–,> 100,> 100,> 100,> 100,> 100,> 100,> 100,> 100,> 100,> 100,> 100,–
NC(Cc1ccccc1)(C(=O)O)C(=O)O,> 100,> 100,> 100,> 100,> 100,> 100,> 100,> 100,> 100,> 100,> 100,–,> 100,> 100,> 100,> 100,> 100,> 100,–
Clc1nc2n(c1/C=C/c1cccs1)CCS2,> 100,> 100,69.3,46.6,–,> 100,35.2,> 100,–,> 100,> 100,> 100,48.8,> 100,> 100,> 100,> 100,> 100,–
NC(=O)NC(=O)c1cccc(NC(=O)CBr)c1,< 0.01,0.336,3.7,–,0.166,3.3,–,0.799,1.75,< 0.0358,1.29,1.69,0.951,1.68,0.0582,< 0.0226,7.47,13.1,–
CN(CCCNC(=O)c1nn(-c2ccc(Cl)cc2Cl)c2c1ccc1ccccc12)CCCNC(=O)c1nn(-c2ccc(Cl)cc2Cl)c2c1ccc1ccccc12,3.07,3.18,3.73,5.7,3.51,–,3.63,3.26,3.52,3.23,3.31,3.18,3.23,–,3.07,3.18,–,2.89,–
